{
  "source": "ChEMBL document CHEMBL4715909",
  "about": "“Identification of Plasmodium falciparum heat shock 90 inhibitors via molecular docking” (Bioorg Med Chem Lett, 2021)",
  "key": {"BJ [1]": {"tested_on": "BJ", "assay": "Cytotoxicity against human BJ cells assessed as reduction in cell viability", "type": "cell-based"}, "Plasmodium falciparum [2]": {"tested_on": "Plasmodium falciparum", "assay": "Antimalarial activity against Plasmodium falciparum 3D7 assessed as reduction in parasitic growth", "type": "functional, organism-based"}, "Plasmodium falciparum [3]": {"tested_on": "Plasmodium falciparum", "assay": "Antimalarial activity against Plasmodium falciparum 3D7 assessed as reduction in parasitic growth at 16 uM relative to control", "type": "functional", "parameters": "scale not given: the % may be the effect or the level left"}, "BJ [4]": {"tested_on": "BJ", "assay": "Cytotoxicity against human BJ cells assessed as reduction in cell viability at 58 uM by relative to control", "type": "cell-based"}},
  "data": [
    {"smiles": "Cc1c(C(=O)Nc2ccc3ccc(=O)oc3c2)nnn1-c1ccc2noc(-c3ccccc3)c2c1", "values": [
      {"measurement": "EC50", "setting": "BJ [1]", "result": "> 24", "unit": "µM"},
      {"measurement": "EC50", "setting": "Plasmodium falciparum [2]", "result": 15.7, "unit": "µM"}
    ]},
    {"smiles": "Cc1nnc(-c2nn(-c3ccc(C(=O)N4CCC[C@H](C)C4)cc3)c(-c3ccc(F)cc3)c2C)o1", "values": [
      {"measurement": "EC50", "setting": "BJ [1]", "result": "> 24", "unit": "µM"},
      {"measurement": "EC50", "setting": "Plasmodium falciparum [2]", "result": 5.5, "unit": "µM"}
    ]},
    {"smiles": "O=C(c1cccc(S(=O)(=O)N2CCc3ccccc32)c1)N1CCC(c2nnc3ccccn23)CC1", "values": [
      {"measurement": "EC50", "setting": "BJ [1]", "result": "> 24", "unit": "µM"},
      {"measurement": "EC50", "setting": "Plasmodium falciparum [2]", "result": "> 18", "unit": "µM"}
    ]},
    {"smiles": "O=C(c1cccc(Nc2nc3ccccc3n3nnnc23)c1)N1CCc2ccccc2C1", "values": [
      {"measurement": "EC50", "setting": "BJ [1]", "result": "> 24", "unit": "µM"},
      {"measurement": "EC50", "setting": "Plasmodium falciparum [2]", "result": 3.44, "unit": "µM"}
    ]},
    {"smiles": "O=C(N[C@H]1CCc2ccccc21)C1CCN(c2ncccc2-c2nc(-c3ccccc3)no2)CC1", "values": [
      {"measurement": "EC50", "setting": "BJ [1]", "result": "> 24", "unit": "µM"},
      {"measurement": "EC50", "setting": "Plasmodium falciparum [2]", "result": 1.11, "unit": "µM"}
    ]},
    {"smiles": "O=C(NCc1ccc2c(c1)OCO2)C1CCN(c2ncnc3onc(-c4cccc(F)c4)c23)CC1", "values": [
      {"measurement": "EC50", "setting": "BJ [1]", "result": "> 24", "unit": "µM"},
      {"measurement": "EC50", "setting": "Plasmodium falciparum [2]", "result": 0.98, "unit": "µM"}
    ]},
    {"smiles": "O=C(c1ccc2noc(-c3ccccc3)c2c1)N1CCC[C@H](c2nnc3ccccn23)C1", "values": [
      {"measurement": "EC50", "setting": "BJ [1]", "result": "> 24", "unit": "µM"},
      {"measurement": "EC50", "setting": "Plasmodium falciparum [2]", "result": "> 18", "unit": "µM"}
    ]},
    {"smiles": "O=C(CCn1c(=O)c2ccccc2n(Cc2ccccc2F)c1=O)N1CCc2ccccc2C1", "values": [
      {"measurement": "EC50", "setting": "BJ [1]", "result": "> 24", "unit": "µM"},
      {"measurement": "EC50", "setting": "Plasmodium falciparum [2]", "result": "> 18", "unit": "µM"}
    ]},
    {"smiles": "Cc1cccc(-c2nc(C3CCN(C(=O)[C@H]4CC(=O)N(c5ccc(C)c(C)c5)C4)CC3)no2)c1", "values": [
      {"measurement": "EC50", "setting": "BJ [1]", "result": "> 24", "unit": "µM"},
      {"measurement": "EC50", "setting": "Plasmodium falciparum [2]", "result": 12.1, "unit": "µM"}
    ]},
    {"smiles": "O=C1CN(C(=O)CN2C[C@H](C(=O)N3CCCCC3)Oc3ccccc32)c2ccccc2N1", "values": [
      {"measurement": "EC50", "setting": "BJ [1]", "result": "> 24", "unit": "µM"},
      {"measurement": "EC50", "setting": "Plasmodium falciparum [2]", "result": "> 18", "unit": "µM"}
    ]},
    {"smiles": "O=C(Cc1ccc2c(c1)OCO2)N1CCC(c2nc(=O)c3nnn(Cc4ccccc4F)c3[nH]2)CC1", "values": [
      {"measurement": "EC50", "setting": "BJ [1]", "result": "> 24", "unit": "µM"},
      {"measurement": "EC50", "setting": "Plasmodium falciparum [2]", "result": 12.7, "unit": "µM"}
    ]},
    {"smiles": "c1ccc(-c2nnn3c2nc(N2CCN(Cc4ccc5c(c4)OCO5)CC2)c2ccccc23)cc1", "values": [
      {"measurement": "EC50", "setting": "BJ [1]", "result": "> 24", "unit": "µM"},
      {"measurement": "EC50", "setting": "Plasmodium falciparum [2]", "result": 17, "unit": "µM"}
    ]},
    {"smiles": "O[C@@H](c1cc(C(F)(F)F)nc2c(C(F)(F)F)cccc12)[C@H]1CCCCN1", "note": "[(S,R)-MEFLOQUINE]", "values": [
      {"measurement": "Activity", "setting": "Plasmodium falciparum [3]", "result": 100, "unit": "%"}
    ]},
    {"smiles": "CC(=O)[C@]1(O)Cc2c(O)c3c(c(O)c2[C@@H](O[C@H]2C[C@H](N)[C@H](O)[C@H](C)O2)C1)C(=O)c1ccccc1C3=O", "note": "[IDARUBICIN]", "values": [
      {"measurement": "Activity", "setting": "BJ [4]", "result": 100, "unit": "%"}
    ]}
  ]
}
